Assay results as given in patent US8921376B2, “Pyrrolopyridines useful as inhibitors of protein kinase” (Vertex Pharmaceuticals Incorporated, priority 2005, dated 2014).

Key:
Type in all cases: biochemical
Settings in all cases: Table 6; enzyme inhibition data (Ki)
JAK3 = molecular target: T1, JAK3 (Homo sapiens, UniProt P52333); assay: JAK3 inhibition assay (33P incorporation into poly(Glu)4Tyr)
T1 sequence (P52333 1-1124): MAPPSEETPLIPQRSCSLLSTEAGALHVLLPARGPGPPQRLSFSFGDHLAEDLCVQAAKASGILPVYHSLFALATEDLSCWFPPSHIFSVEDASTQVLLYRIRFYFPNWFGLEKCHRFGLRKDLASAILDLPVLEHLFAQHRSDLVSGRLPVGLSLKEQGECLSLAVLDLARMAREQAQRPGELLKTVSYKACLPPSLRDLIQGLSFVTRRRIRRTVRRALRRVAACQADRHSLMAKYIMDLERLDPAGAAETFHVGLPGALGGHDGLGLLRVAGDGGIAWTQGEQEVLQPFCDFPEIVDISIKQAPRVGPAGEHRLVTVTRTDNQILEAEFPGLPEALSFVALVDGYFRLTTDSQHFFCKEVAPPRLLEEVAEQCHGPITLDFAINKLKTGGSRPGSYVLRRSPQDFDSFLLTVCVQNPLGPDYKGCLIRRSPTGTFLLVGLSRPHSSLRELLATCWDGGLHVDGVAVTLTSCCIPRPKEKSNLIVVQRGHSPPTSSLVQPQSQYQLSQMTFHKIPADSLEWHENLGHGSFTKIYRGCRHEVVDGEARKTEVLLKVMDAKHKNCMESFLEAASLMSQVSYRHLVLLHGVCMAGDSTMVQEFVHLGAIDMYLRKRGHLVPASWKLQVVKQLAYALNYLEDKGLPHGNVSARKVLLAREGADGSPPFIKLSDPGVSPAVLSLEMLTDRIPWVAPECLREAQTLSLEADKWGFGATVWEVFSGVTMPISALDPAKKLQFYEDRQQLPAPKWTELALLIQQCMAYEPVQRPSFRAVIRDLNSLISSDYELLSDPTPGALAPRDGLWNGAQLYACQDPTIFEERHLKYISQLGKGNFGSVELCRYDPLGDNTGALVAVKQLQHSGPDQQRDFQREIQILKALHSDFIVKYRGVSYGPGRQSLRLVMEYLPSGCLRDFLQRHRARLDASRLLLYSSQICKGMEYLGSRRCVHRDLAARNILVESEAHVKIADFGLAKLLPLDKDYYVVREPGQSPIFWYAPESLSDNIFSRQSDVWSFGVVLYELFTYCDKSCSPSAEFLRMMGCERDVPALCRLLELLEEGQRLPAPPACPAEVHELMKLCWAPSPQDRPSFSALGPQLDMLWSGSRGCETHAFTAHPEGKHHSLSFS
How it was run: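 After TCA quench and filter harvest, scintillation counting of 33P measured phosphorylation of poly(Glu)4Tyr (1 μM) by 1 nM JAK3. The 20-min, 25° C. reaction contained 5 μM ATP (200 μCi/μmole) in pH 7.4 HEPES buffer with 10 mM MgCl2.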

ROCK I = ROCK I (Homo sapiens, UniProt Q13464); assay: ROCK-I inhibition assay (radioactive enzyme assay, MBP substrate)
How it was run: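 Human ROCK at 5 nM phosphorylated 27 μM myelin basic protein with 13 μM [γ-33P]ATP (final) in HEPES pH 7.5, MgCl2, NaCl, DTT and 1.5% DMSO. Reactions ran 2 h at room temperature before TCA quench and filter-plate scintillation counting. After background subtraction, data were fit to give Ki(app).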

JAK2 = JAK2 (Homo sapiens, UniProt O60674); assay: JAK2 inhibition assay (as Example 3 with JAK-2 enzyme)
How it was run: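 In HEPES pH 7.4 buffer with 10 mM MgCl2, 1 mM DTT, 25 mM NaCl and 0.01% BSA, JAK2 enzyme phosphorylated poly(Glu)4Tyr (final 15 μM) using 33P-ATP (final 12 μM) for 20 min at room temperature (25 °C). Reactions stopped with TCA; incorporated 33P measured by scintillation after filtration.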

ROCK I, sequence (Q13464 whole entry): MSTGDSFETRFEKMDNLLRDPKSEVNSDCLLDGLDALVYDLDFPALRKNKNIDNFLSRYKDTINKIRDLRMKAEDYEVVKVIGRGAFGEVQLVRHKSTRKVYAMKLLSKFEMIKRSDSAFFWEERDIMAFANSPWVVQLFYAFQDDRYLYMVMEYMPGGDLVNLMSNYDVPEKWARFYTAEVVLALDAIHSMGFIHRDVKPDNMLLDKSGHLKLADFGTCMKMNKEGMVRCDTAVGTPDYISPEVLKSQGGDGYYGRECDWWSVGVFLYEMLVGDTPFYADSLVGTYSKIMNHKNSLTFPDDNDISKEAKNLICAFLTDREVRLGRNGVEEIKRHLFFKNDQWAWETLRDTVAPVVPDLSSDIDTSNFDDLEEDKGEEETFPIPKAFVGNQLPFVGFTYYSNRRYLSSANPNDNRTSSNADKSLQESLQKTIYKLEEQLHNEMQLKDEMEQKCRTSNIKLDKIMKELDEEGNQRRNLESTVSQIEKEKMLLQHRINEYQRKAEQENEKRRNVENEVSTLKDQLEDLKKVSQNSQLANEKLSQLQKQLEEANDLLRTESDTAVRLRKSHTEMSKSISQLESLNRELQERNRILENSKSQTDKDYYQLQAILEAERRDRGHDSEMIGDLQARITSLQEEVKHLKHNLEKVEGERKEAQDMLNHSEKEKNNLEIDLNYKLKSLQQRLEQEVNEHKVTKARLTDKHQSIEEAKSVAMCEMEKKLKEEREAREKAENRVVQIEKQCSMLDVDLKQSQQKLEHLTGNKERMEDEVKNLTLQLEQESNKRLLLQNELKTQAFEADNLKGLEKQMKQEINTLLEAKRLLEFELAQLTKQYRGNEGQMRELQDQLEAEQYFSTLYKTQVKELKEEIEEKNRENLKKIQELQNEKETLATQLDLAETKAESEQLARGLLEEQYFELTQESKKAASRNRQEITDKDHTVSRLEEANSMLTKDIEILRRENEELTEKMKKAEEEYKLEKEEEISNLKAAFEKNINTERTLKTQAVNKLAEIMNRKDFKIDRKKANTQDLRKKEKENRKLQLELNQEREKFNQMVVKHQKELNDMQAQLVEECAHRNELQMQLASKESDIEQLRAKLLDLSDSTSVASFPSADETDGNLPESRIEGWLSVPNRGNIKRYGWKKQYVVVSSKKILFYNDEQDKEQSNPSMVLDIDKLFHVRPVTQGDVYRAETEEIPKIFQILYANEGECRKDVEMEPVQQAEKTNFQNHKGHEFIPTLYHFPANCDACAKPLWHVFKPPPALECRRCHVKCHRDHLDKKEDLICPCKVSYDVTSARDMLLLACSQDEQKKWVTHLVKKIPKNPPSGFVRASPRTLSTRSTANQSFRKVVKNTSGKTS
JAK2, sequence (O60674 whole entry): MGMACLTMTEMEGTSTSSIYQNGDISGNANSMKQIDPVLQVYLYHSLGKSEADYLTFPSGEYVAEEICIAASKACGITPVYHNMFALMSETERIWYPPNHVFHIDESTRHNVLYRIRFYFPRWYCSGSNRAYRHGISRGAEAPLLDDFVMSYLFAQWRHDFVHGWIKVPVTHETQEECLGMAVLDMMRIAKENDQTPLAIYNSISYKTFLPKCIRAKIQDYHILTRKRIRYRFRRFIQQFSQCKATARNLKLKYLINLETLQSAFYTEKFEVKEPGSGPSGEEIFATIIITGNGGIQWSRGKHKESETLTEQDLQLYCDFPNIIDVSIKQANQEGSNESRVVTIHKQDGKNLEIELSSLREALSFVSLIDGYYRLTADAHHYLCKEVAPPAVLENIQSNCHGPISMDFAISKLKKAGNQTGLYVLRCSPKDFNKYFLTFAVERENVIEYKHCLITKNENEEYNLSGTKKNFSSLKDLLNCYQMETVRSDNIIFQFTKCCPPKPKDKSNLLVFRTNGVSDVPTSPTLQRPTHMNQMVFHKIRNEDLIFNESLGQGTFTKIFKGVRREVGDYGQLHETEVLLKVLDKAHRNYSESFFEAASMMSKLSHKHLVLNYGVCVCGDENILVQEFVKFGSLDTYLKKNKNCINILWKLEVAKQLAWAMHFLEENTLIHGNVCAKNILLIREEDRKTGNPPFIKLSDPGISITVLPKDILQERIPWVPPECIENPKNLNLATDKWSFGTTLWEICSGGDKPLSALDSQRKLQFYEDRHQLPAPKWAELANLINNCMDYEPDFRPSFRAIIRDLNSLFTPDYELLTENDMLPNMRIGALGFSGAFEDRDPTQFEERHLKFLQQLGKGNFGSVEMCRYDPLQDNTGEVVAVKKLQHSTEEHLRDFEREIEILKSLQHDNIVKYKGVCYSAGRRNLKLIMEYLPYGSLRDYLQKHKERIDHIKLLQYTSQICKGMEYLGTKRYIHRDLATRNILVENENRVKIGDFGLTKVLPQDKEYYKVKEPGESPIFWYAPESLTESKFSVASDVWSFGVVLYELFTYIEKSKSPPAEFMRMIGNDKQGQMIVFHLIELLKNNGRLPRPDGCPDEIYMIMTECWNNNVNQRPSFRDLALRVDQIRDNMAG

Structure (SMILES)	Ki (JAK3) [µM]	Ki (ROCK I) [µM]	Ki (JAK2) [µM]
N#CCCNC(=O)c1cc(-c2ccnc3[nH]ccc23)c[nH]1 [compound 296]	< 0.5	< 0.5	< 0.5
CCN(CCC#N)C(=O)c1cc(-c2ccnc3[nH]ccc23)c[nH]1 [compound 297]	< 0.5	< 0.5	< 0.5
C=CCN(CC=C)C(=O)c1cc(-c2ccnc3[nH]ccc23)c[nH]1 [compound 298]	< 0.5	< 0.5	< 0.5
N#CCCN(Cc1cccnc1)C(=O)c1cc(-c2ccnc3[nH]ccc23)c[nH]1 [compound 299]	< 0.5	< 0.5	< 0.5
CCCCN(CC#N)C(=O)c1cc(-c2ccnc3[nH]ccc23)c[nH]1 [compound 300]	< 0.5	< 0.5	< 0.5
CCCN(CC1CC1)C(=O)c1cc(-c2ccnc3[nH]ccc23)c[nH]1 [compound 301]	< 0.5	< 0.5	< 0.5
CCCN(CCC#N)C(=O)c1cc(-c2ccnc3[nH]ccc23)c[nH]1 [compound 302]	< 0.5	< 0.5	< 0.5
CCCCN(CCC#N)C(=O)c1cc(-c2ccnc3[nH]ccc23)c[nH]1 [compound 303]	< 0.5	< 0.5	< 0.5
CCN(Cc1ccccc1)C(=O)c1ccc(-c2ccnc3[nH]ccc23)s1 [compound 304]	< 0.5	< 0.5	< 0.5
CCN(Cc1ccccn1)C(=O)c1cc(-c2ccnc3[nH]ccc23)c[nH]1 [compound 305]	< 0.5	0.5 to 5	< 0.5
CN(CCC#N)C(=O)c1cc(-c2ccnc3[nH]ccc23)c[nH]1 [compound 306]	< 0.5	< 0.5	< 0.5
C#CCN(C)C(=O)c1cc(-c2ccnc3[nH]ccc23)c[nH]1 [compound 307]	< 0.5	< 0.5	< 0.5
COCCN(CCOC)C(=O)c1cc(-c2ccnc3[nH]ccc23)c[nH]1 [compound 308]	< 0.5	0.5 to 5	< 0.5
CCCN(CCC)C(=O)c1cc(-c2ccnc3[nH]ccc23)c[nH]1 [compound 309]	< 0.5	< 0.5	< 0.5
CC(C)CN(C)C(=O)c1cc(-c2ccnc3[nH]ccc23)c[nH]1 [compound 310]	< 0.5	0.5 to 5	< 0.5
CC(C)CN(CC(C)C)C(=O)c1cc(-c2ccnc3[nH]ccc23)c[nH]1 [compound 311]	< 0.5	< 0.5	< 0.5
N#CCCN(Cc1ccccc1)C(=O)c1cc(-c2ccnc3[nH]ccc23)c[nH]1 [compound 312]	< 0.5	< 0.5	< 0.5
CCN(Cc1ccccc1)C(=O)c1cc(-c2ccnc3[nH]ccc23)c[nH]1 [compound 313]	< 0.5	< 0.5	< 0.5
CCN(CCC#N)C(=O)c1ccc(-c2ccnc3[nH]ccc23)s1 [compound 314]	< 0.5	< 0.5	< 0.5
C=CCN(CC=C)C(=O)c1ccc(-c2ccnc3[nH]ccc23)s1 [compound 315]	< 0.5	< 0.5	< 0.5
N#CCCN(Cc1cccnc1)C(=O)c1ccc(-c2ccnc3[nH]ccc23)s1 [compound 316]	< 0.5	< 0.5	< 0.5
CCCCN(CC#N)C(=O)c1ccc(-c2ccnc3[nH]ccc23)s1 [compound 317]	< 0.5	< 0.5	< 0.5
CCN(Cc1ccccn1)C(=O)c1ccc(-c2ccnc3[nH]ccc23)s1 [compound 318]	< 0.5	< 0.5	< 0.5
CCCN(CC1CC1)C(=O)c1ccc(-c2ccnc3[nH]ccc23)s1 [compound 319]	< 0.5	< 0.5	< 0.5

Structure (SMILES)	Ki (JAK3) [µM]	Ki (ROCK I) [µM]	Ki (JAK2) [µM]
CCCN(CCC#N)C(=O)c1ccc(-c2ccnc3[nH]ccc23)s1 [compound 320]	< 0.5	< 0.5	< 0.5
CCCCN(CCC#N)C(=O)c1ccc(-c2ccnc3[nH]ccc23)s1 [compound 321]	< 0.5	< 0.5	< 0.5
CN(CCC#N)C(=O)c1ccc(-c2ccnc3[nH]ccc23)s1 [compound 322]	< 0.5	< 0.5	< 0.5
C#CCN(C)C(=O)c1ccc(-c2ccnc3[nH]ccc23)s1 [compound 323]	< 0.5	< 0.5	< 0.5
COCCN(CCOC)C(=O)c1ccc(-c2ccnc3[nH]ccc23)s1 [compound 324]	< 0.5	< 0.5	< 0.5
CCCN(CCC)C(=O)c1ccc(-c2ccnc3[nH]ccc23)s1 [compound 325]	< 0.5	< 0.5	< 0.5
CC(C)CN(C)C(=O)c1ccc(-c2ccnc3[nH]ccc23)s1 [compound 326]	< 0.5	< 0.5	< 0.5
CC(C)CN(CC(C)C)C(=O)c1ccc(-c2ccnc3[nH]ccc23)s1 [compound 327]	0.5 to 5	< 0.5	< 0.5
N#CCCN(Cc1ccccc1)C(=O)c1ccc(-c2ccnc3[nH]ccc23)s1 [compound 328]	< 0.5	< 0.5	< 0.5
CCN(CCC#N)C(=O)c1cc(-c2c(Cl)cnc3[nH]ccc23)c[nH]1 [compound 329]	< 0.5	0.5 to 5	< 0.5
C=CCN(CC=C)C(=O)c1cc(-c2c(Cl)cnc3[nH]ccc23)c[nH]1 [compound 330]	< 0.5	0.5 to 5	< 0.5
N#CCCN(Cc1cccnc1)C(=O)c1cc(-c2c(Cl)cnc3[nH]ccc23)c[nH]1 [compound 331]	< 0.5	0.5 to 5	< 0.5
CCCCN(CC#N)C(=O)c1cc(-c2c(Cl)cnc3[nH]ccc23)c[nH]1 [compound 332]	< 0.5	0.5 to 5	< 0.5
CCN(Cc1ccccn1)C(=O)c1cc(-c2c(Cl)cnc3[nH]ccc23)c[nH]1 [compound 333]	< 0.5	> 4	< 0.5
CCCN(CC1CC1)C(=O)c1cc(-c2c(Cl)cnc3[nH]ccc23)c[nH]1 [compound 334]	< 0.5	0.5 to 5	< 0.5
CCCN(CCC#N)C(=O)c1cc(-c2c(Cl)cnc3[nH]ccc23)c[nH]1 [compound 335]	< 0.5	0.5 to 5	< 0.5
CCCCN(CCC#N)C(=O)c1cc(-c2c(Cl)cnc3[nH]ccc23)c[nH]1 [compound 336]	< 0.5	0.5 to 5	< 0.5
C#CCN(C)C(=O)c1cc(-c2c(Cl)cnc3[nH]ccc23)c[nH]1 [compound 338]	< 0.5	0.5 to 5	< 0.5
COCCN(CCOC)C(=O)c1cc(-c2c(Cl)cnc3[nH]ccc23)c[nH]1 [compound 339]	< 0.5	> 4	< 0.5
CCCN(CCC)C(=O)c1cc(-c2c(Cl)cnc3[nH]ccc23)c[nH]1 [compound 340]	< 0.5	> 4	< 0.5
CC(C)CN(C)C(=O)c1cc(-c2c(Cl)cnc3[nH]ccc23)c[nH]1 [compound 341]	< 0.5	0.5 to 5	< 0.5
CC(C)CN(CC(C)C)C(=O)c1cc(-c2c(Cl)cnc3[nH]ccc23)c[nH]1 [compound 342]	< 0.5	> 4	< 0.5
N#CCCN(Cc1ccccc1)C(=O)c1cc(-c2c(Cl)cnc3[nH]ccc23)c[nH]1 [compound 343]	< 0.5	0.5 to 5	< 0.5
